Several values for one entry are separate records, joined by “and”; a condition that tells them apart may be missing. Equal entries are not always repeated.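 Assay format: 96-well plates, 48-hour exposure. The concentration for 50% growth inhibition is given as GI50. TGI: concentration producing complete growth inhibition.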
Tests used:
Test in all cases: inhibition of tumour cell growth, NCI panel, 48 h
[1] = tested on: OVCAR-3 ovarian
[2] = tested on: NCI-H460 lung
[3] = tested on: COLO 205 colon
[4] = tested on: M14 melanoma
[5] = tested on: SF-539 CNS
[6] = tested on: U251 CNS
[7] = tested on: A549 NSCLC
[8] = tested on: UACC-257 melanoma
[9] = tested on: UO-31 renal
[10] = tested on: KM12 colon

| Compound | GI50 [1] | TGI [1] | GI50 [2] | TGI [2] | GI50 [3] | TGI [3] | GI50 [4] | TGI [4] | GI50 [5] | TGI [5] | GI50 [6] | TGI [6] | GI50 [7] | TGI [7] | GI50 [8] | TGI [8] | GI50 [9] | TGI [9] | GI50 [10] | TGI [10] |
| --- | --- | --- | --- | --- | --- | --- | --- | --- | --- | --- | --- | --- | --- | --- | --- | --- | --- | --- | --- | --- |
| O=C(Nc1ncc(Cc2cccc(C(F)(F)F)c2)s1)c1ccc2c(c1)OCCO2 | 0.223 µM | 0.629 µM | 0.349 µM | > 38.2 µM | 0.282 µM | 1.54 µM | 0.224 µM | > 48.8 µM | 0.251 µM | 0.916 µM | 0.385 µM | > 48.2 µM | 0.451 µM | > 100 µM | 5.87 µM | > 100 µM | 1.09 µM | > 100 µM | 0.196 µM | > 100 µM |
| Cc1nc2c(N)ncnc2o1 |  | > 100 µM |  | > 100 µM |  | > 100 µM |  | > 100 µM |  | > 100 µM |  | > 100 µM |  | > 100 µM |  | > 100 µM |  | > 100 µM |  | > 100 µM |
| CCOc1ccc(OCC(=O)O)c2c1CCCC2=O |  | > 100 µM |  | > 100 µM |  | > 100 µM |  | > 100 µM |  | > 100 µM |  | > 100 µM |  | > 100 µM |  | > 100 µM |  | > 100 µM |  | > 100 µM |
| O=C(O)c1ccc(CNCc2ccccc2)cc1 |  | > 100 µM |  | > 100 µM |  | > 100 µM |  | > 100 µM |  | > 100 µM |  | > 100 µM |  | > 100 µM |  | > 100 µM |  | > 100 µM |  | > 100 µM |
| Cc1cc(C(=O)CSC(=S)SC(C)(C)C)ccc1Cl |  | 35.4 µM |  | 28.3 µM |  | 33.1 µM |  | 30.4 µM |  | 35.7 µM |  | 28.3 µM |  | 50 µM |  | 34.4 µM |  | 42.6 µM |  | 53.3 µM |
| Nc1c(C(=O)Nc2ccccn2)sc2nc3c(cc12)C(=O)CCC3 | 0.792 µM | 14.7 µM | 0.596 µM | > 100 µM | 0.908 µM | 26 µM | 0.483 µM | > 100 µM | 1.17 µM | 5.65 µM | 1.34 µM | > 100 µM | 1.78 µM | > 100 µM | 69.8 µM | > 100 µM | 9.45 µM | > 100 µM | 0.762 µM | > 100 µM |
| Oc1oc(C(=C2N=c3ccccc3=N2)c2ccc(Cl)cc2)c(O)c1-c1ccc(Cl)cc1 |  | > 100 µM |  | > 100 µM |  | 3.01 µM |  | 18 µM |  | 9.91 µM |  | 22.9 µM |  | > 100 µM |  | 6.45 µM |  | 8.08 µM |  | 15.9 µM |
| C/C(=N\NC(N)=O)c1sc(-c2nc(C)c(/C(C)=N/NC(N)=O)s2)nc1C |  | > 100 µM |  | > 100 µM |  | > 100 µM |  | > 100 µM |  | > 100 µM |  | > 100 µM |  | > 100 µM |  | > 100 µM |  | > 100 µM |  | > 100 µM |
| COc1cc(/C=C2\CCCCC3=C2N=C2SC(C)=CN2C3c2cc(OC)c(OC)c(OC)c2)cc(OC)c1OC (centres undefined) | 23.7 µM | > 100 µM | 96.1 µM | > 100 µM | 41.6 µM | > 100 µM | 23.7 µM | > 100 µM | > 100 µM | > 100 µM | 19.2 µM | > 100 µM | 20.4 µM | > 100 µM | 0.403 µM | > 100 µM | 22.6 µM | > 100 µM | 36.8 µM | > 100 µM |
| O=C1C=C(c2c(O)ccc3ccccc23)c2cc(O)ccc2C1=O |  | 22.5 µM |  | 44.7 µM |  | 40 µM |  | 29.9 µM |  | 39.3 µM |  | 28.4 µM |  | 36.7 µM |  | 33.1 µM |  | 36.5 µM |  | 31.5 µM |
| CCn1cc(-c2ccnc3[nH]c(-c4cccc(CN(C)C)c4)cc23)c(-c2ccc(NC(=O)N(C)C)cc2)n1 | 3.82 µM and 3.15 µM | 23.9 µM and > 10 µM | 0.209 µM and 0.109 µM | 13.7 µM and > 10 µM | < 0.01 µM and 0.0272 µM | 3.81 µM and 2.99 µM | 1.91 µM and 2.31 µM | 16.9 µM and > 10 µM | 0.418 µM and 1.38 µM | 13.3 µM and > 10 µM | 2.34 µM and 4.03 µM | 19.1 µM and > 10 µM | 0.238 µM and 0.747 µM | 16.1 µM and > 10 µM | 4.76 µM and > 10 µM | 21.7 µM and > 10 µM | 2.22 µM and 1.99 µM | 9.98 µM and > 10 µM | 1.06 µM and 1.62 µM | 13.5 µM and > 10 µM |
| COc1ccc(CNc2c3ccccc3nc3ccccc23)cc1F | 4.08 µM | 13.3 µM | 3.15 µM | 10.4 µM | 2.01 µM | 5.64 µM | 1.79 µM | 3.59 µM | 3.04 µM | 10.7 µM | 3.82 µM | 15.5 µM | 3.55 µM | 18 µM | 3.98 µM | 16.7 µM | 1.49 µM | 6.15 µM | 3.93 µM | 15.1 µM |
| N#CC(I)CS(=O)(=O)c1ccccc1 (centres undefined) | 2.03 µM | 3.55 µM | 21.6 µM | 42.4 µM | 2.03 µM | 3.86 µM | 14.6 µM | 28.4 µM | 18.2 µM | 32.5 µM | > 100 µM | > 100 µM | 22.7 µM | 47.6 µM | 17 µM | 31.2 µM | 12 µM | 25.8 µM | 18.9 µM | 34.4 µM |
| Cc1nc2sccn2c1-c1nc2sccn2c1/C=C1/C(=O)Nc2ccccc21 | 1.7 µM | 6.24 µM | 3.09 µM | 13.5 µM | 2.63 µM | 10.5 µM | 3.99 µM | > 100 µM | 3.72 µM | 15.6 µM | 4.54 µM | 64.8 µM | 3.95 µM | > 100 µM | 16.3 µM | 91.9 µM | 4.93 µM | 89.7 µM | 1.76 µM | 14.6 µM |
| COc1ccc(/C=C\c2cc(OC)c(OC)c(OC)c2)cc1OCC(=O)O |  | 8.25 µM |  | > 55.3 µM |  | > 100 µM |  | 62.9 µM |  | 11.5 µM |  | 39.6 µM |  | > 100 µM |  | > 100 µM |  | > 94.8 µM |  | > 74 µM |
| O=C1C=C(Nc2ccc(Cl)cc2C(=O)c2ccccc2)c2ccccc2C1=O |  | > 100 µM |  | > 100 µM |  | > 100 µM |  | > 100 µM |  | > 100 µM |  | > 100 µM |  | > 100 µM |  | > 100 µM |  | > 100 µM |  | > 100 µM |
| Cc1cccc(NC2=C(Cl)C(=O)c3nc(C)ccc3C2=O)c1 | 0.262 µM | 1.18 µM | 1.64 µM | 3.82 µM | 1.86 µM | 4.1 µM | 1.32 µM | 2.72 µM | 1.39 µM | 2.75 µM | 1.09 µM | 2.67 µM | 2.18 µM | 6.11 µM | 1.63 µM | 3.12 µM | 1.29 µM | 2.59 µM | 2.67 µM | 10.8 µM |
| CN1Nc2ccccc2CC1=O |  | > 100 µM |  | > 100 µM |  | > 100 µM |  | > 100 µM |  | > 100 µM |  | > 100 µM |  | > 100 µM |  | > 100 µM |  | > 100 µM |  | > 100 µM |
| Cc1cc2c(cc1C)[n+](=O)cc(C(=O)C/C(=N/NC(=S)NN)C(=O)Nc1cccc(C(F)(F)F)c1)n2[O-] |  | > 100 µM |  | > 100 µM |  | > 100 µM |  | > 100 µM |  | > 100 µM |  | > 100 µM |  | > 100 µM |  | > 100 µM |  | > 100 µM |  | > 100 µM |
| CCN(Cc1c(F)cccc1OC)c1ccc(CO)c(Cl)c1 | 0.253 µM | 1.81 µM | 0.201 µM | 11.7 µM | 0.684 µM | 7.43 µM | 19.7 µM | 47.8 µM | 16.6 µM | 33.1 µM | 0.716 µM | 26.7 µM | 2.35 µM | 23.1 µM | 0.0523 µM | 0.226 µM | 14.9 µM | 48.8 µM | 15.9 µM | 49.8 µM |
| O=[N+]([O-])c1ccccc1N=Nc1c(O)[nH]c2c(Cl)cc(Cl)cc12 |  | > 74.7 µM |  | > 100 µM |  | > 100 µM |  | > 100 µM |  | 50.2 µM |  | 27.7 µM |  | > 100 µM |  | > 100 µM |  | > 100 µM |  | > 100 µM |
| CCN(CCNS(C)(=O)=O)c1ccc(N)c(C)c1 | 3.15 µM | 8.58 µM | 23.2 µM | 53.7 µM | 13.4 µM | 28.9 µM | 10.9 µM | 26.4 µM | 9.08 µM | 21.6 µM | 18.1 µM | 32.5 µM | 25 µM | 51 µM | 13.4 µM | 27.1 µM | 2.58 µM | 7.67 µM | 13.1 µM | 26.9 µM |
| CCCCCCCC(=O)OCC1OC(n2cc(F)c(=O)[nH]c2=O)C(N)C(OC(=O)CCCCCCC)C1O (centres undefined) |  | 41.2 µM |  | 34.8 µM |  | 34 µM |  | 32.2 µM |  | 36.1 µM |  | 33.6 µM |  | 32.3 µM |  | 33.4 µM |  | 36.6 µM |  | 42.3 µM |
| O=c1cccc(C#CC#C[C@@H]2O[C@H]2CO)o1 | 2.06 µM | 3.69 µM | 2.03 µM | 4.63 µM | 0.201 µM | 0.388 µM | 0.414 µM |  | 1.91 µM | 3.68 µM | 1.46 µM | 3.07 µM | 2.25 µM | 4.8 µM | 2.17 µM | 4.52 µM | 1.06 µM | 2.88 µM | 2.06 µM | 7.47 µM |

Reference: PubChem BioAssay (NCI)
